# “And” between values parts separate entries of the source, which are not always exact repeats. Equal entries are not always repeated. The source made the active and inactive calls. The calls are words filed in the database; no cut-off is given here.
# Columns and labels:
# [1] = molecular target: Serine/threonine-protein kinase N2 (Homo sapiens) (UniProt Q16513); assay: Inhibition of human PKN2 assessed as percent of control at 2000 nM by KINOMEscan assay relative to control; design: scale not given: the % may be the effect or the level left
# [2] = system: Myc-CaP; assay: Antiproliferative activity against murine castration-resistant Myc-CaP cells at 1 uM assessed as growth inhibition in presence of 5 uM enzalutamide relative to control; type: functional; conditions: Mus musculus
# [3] = molecular target: Death-associated protein kinase 1 (Homo sapiens) (UniProt P53355); assay: Inhibition of human DAPK1 assessed as percent of control at 2000 nM by KINOMEscan assay relative to control; design: scale not given: the % may be the effect or the level left
# [4] = molecular target: Cyclin-dependent kinase 18 (Homo sapiens) (UniProt Q07002); assay: Inhibition of human PCTK3 assessed as percent of control at 2000 nM by KINOMEscan assay relative to control; design: scale not given: the % may be the effect or the level left
# [5] = system: Epidermal growth factor receptor (Homo sapiens), P00533 [UNDEFINED MUTATION]; assay: Inhibition of human EGFR E746-A750del mutant assessed as percent of control at 2000 nM by KINOMEscan assay relative to control; design: scale not given: the % may be the effect or the level left
# [6] = molecular target: Serine/threonine-protein kinase PAK 5 (Homo sapiens) (UniProt Q9P286); assay: Inhibition of human PAK7 assessed as percent of control at 2000 nM by KINOMEscan assay relative to control; design: scale not given: the % may be the effect or the level left
# [7] = molecular target: Insulin-like growth factor 1 receptor (Homo sapiens) (UniProt P08069); assay: Inhibition of human IGF1R assessed as percent of control at 2000 nM by KINOMEscan assay relative to control; design: scale not given: the % may be the effect or the level left
# [8] = molecular target: Cyclin-dependent kinase-like 3 (Homo sapiens) (UniProt Q8IVW4); assay: Inhibition of human CDKL3 assessed as percent of control at 2000 nM by KINOMEscan assay relative to control; design: scale not given: the % may be the effect or the level left
# [9] = molecular target: Fibroblast growth factor receptor 3 (Homo sapiens) (UniProt P22607); assay: Inhibition of human FGFR3 assessed as percent of control at 2000 nM by KINOMEscan assay relative to control; design: scale not given: the % may be the effect or the level left
# [10] = molecular target: Tyrosine-protein kinase Blk (Homo sapiens) (UniProt P51451); assay: Inhibition of human BLK assessed as percent of control at 2000 nM by KINOMEscan assay relative to control; design: scale not given: the % may be the effect or the level left
# [11] = molecular target: Serine/threonine-protein kinase pim-2 (Homo sapiens) (UniProt Q9P1W9); assay: Inhibition of human PIM2 assessed as percent of control at 2000 nM by KINOMEscan assay relative to control; design: scale not given: the % may be the effect or the level left
# [12] = molecular target: Uncharacterized serine/threonine-protein kinase SBK3 (Homo sapiens) (UniProt P0C264); assay: Inhibition of human SgK110 assessed as percent of control at 2000 nM by KINOMEscan assay relative to control; design: scale not given: the % may be the effect or the level left
# [13] = system: Receptor-type tyrosine-protein kinase FLT3 (Homo sapiens), P36888 [D835V]; assay: Inhibition of human FLT3 D835V mutant assessed as percent of control at 2000 nM by KINOMEscan assay relative to control; design: scale not given: the % may be the effect or the level left; conditions: INHIBITOR
# [14] = system: Myc-CaP; assay: Antitumor activity against murine castration-resistant Myc-CaP cells xenografted in male FVB mouse assessed as suppression of tumor weight; type: functional
# [15] = molecular target: Dual specificity mitogen-activated protein kinase kinase 4 (Homo sapiens) (UniProt P45985); assay: Inhibition of human MEK4 assessed as percent of control at 2000 nM by KINOMEscan assay relative to control; design: scale not given: the % may be the effect or the level left
# [16] = molecular target: Tyrosine-protein kinase ABL1 (Homo sapiens) (UniProt P00519); assay: Inhibition of phosphorylated human ABL1 assessed as percent of control at 2000 nM by KINOMEscan assay relative to control; design: scale not given: the % may be the effect or the level left
# [17] = molecular target: Phosphatidylinositol 4-phosphate 5-kinase type-1 gamma (Homo sapiens) (UniProt O60331); assay: Inhibition of human PIP5K1C assessed as percent of control at 2000 nM by KINOMEscan assay relative to control; design: scale not given: the % may be the effect or the level left
# [18] = molecular target: Serine/threonine-protein kinase ULK3 (Homo sapiens) (UniProt Q6PHR2); assay: Inhibition of human ULK3 assessed as percent of control at 2000 nM by KINOMEscan assay relative to control; design: scale not given: the % may be the effect or the level left
# [19] = molecular target: Serine/threonine-protein kinase DCLK3 (Homo sapiens) (UniProt Q9C098); assay: Inhibition of human DCAMKL3 assessed as percent of control at 2000 nM by KINOMEscan assay relative to control; design: scale not given: the % may be the effect or the level left
# [20] = molecular target: Serine/threonine-protein kinase WNK2 (Homo sapiens) (UniProt Q9Y3S1); assay: Inhibition of human WNK2 assessed as percent of control at 2000 nM by KINOMEscan assay relative to control; design: scale not given: the % may be the effect or the level left
# [21] = system: Phosphatidylinositol 4,5-bisphosphate 3-kinase catalytic subunit alpha isoform (Homo sapiens), P42336 [H1047Y]; assay: Inhibition of human PIK3CA H1047Y mutant assessed as percent of control at 2000 nM by KINOMEscan assay relative to control; design: scale not given: the % may be the effect or the level left
# [22] = system: Hepatocyte growth factor receptor (Homo sapiens), P08581 [M1250T]; assay: Inhibition of human MET M1250T mutant assessed as percent of control at 2000 nM by KINOMEscan assay relative to control; design: scale not given: the % may be the effect or the level left
# [23] = molecular target: Tyrosine-protein kinase ITK/TSK (Homo sapiens) (UniProt Q08881); assay: Inhibition of human ITK assessed as percent of control at 2000 nM by KINOMEscan assay relative to control; design: scale not given: the % may be the effect or the level left
# [24] = molecular target: SRSF protein kinase 2 (Homo sapiens) (UniProt P78362); assay: Inhibition of human SRPK2 assessed as percent of control at 2000 nM by KINOMEscan assay relative to control; design: scale not given: the % may be the effect or the level left
# [25] = system: ALK tyrosine kinase receptor (Homo sapiens), Q9UM73 [L1196M]; assay: Inhibition of human ALK L1196M mutant assessed as percent of control at 2000 nM by KINOMEscan assay relative to control; design: scale not given: the % may be the effect or the level left
# [26] = system: Receptor-type tyrosine-protein kinase FLT3 (Homo sapiens), P36888 [UNDEFINED MUTATION]; assay: Inhibition of human FLT3 ITD/D835V double mutant assessed as percent of control at 2000 nM by KINOMEscan assay relative to control; design: scale not given: the % may be the effect or the level left; conditions: INHIBITOR
# [27] = molecular target: Death-associated protein kinase 2 (Homo sapiens) (UniProt Q9UIK4); assay: Inhibition of human DAPK2 assessed as percent of control at 2000 nM by KINOMEscan assay relative to control; design: scale not given: the % may be the effect or the level left
# [28] = molecular target: MAP kinase-interacting serine/threonine-protein kinase 1 (Homo sapiens) (UniProt Q9BUB5); assay: Inhibition of human MKNK1 assessed as percent of control at 2000 nM by KINOMEscan assay relative to control; design: scale not given: the % may be the effect or the level left
# [29] = molecular target: BMP-2-inducible protein kinase (Homo sapiens) (UniProt Q9NSY1); assay: Inhibition of human BIKE assessed as percent of control at 2000 nM by KINOMEscan assay relative to control; design: scale not given: the % may be the effect or the level left
# [30] = molecular target: Serine/threonine-protein kinase Sgk3 (Homo sapiens) (UniProt Q96BR1); assay: Inhibition of human SGK3 assessed as percent of control at 2000 nM by KINOMEscan assay relative to control; design: scale not given: the % may be the effect or the level left
# Sequence of ALK tyrosine kinase receptor (Homo sapiens), Q9UM73 [L1196M] (Q9UM73 whole entry L1196M, looked up): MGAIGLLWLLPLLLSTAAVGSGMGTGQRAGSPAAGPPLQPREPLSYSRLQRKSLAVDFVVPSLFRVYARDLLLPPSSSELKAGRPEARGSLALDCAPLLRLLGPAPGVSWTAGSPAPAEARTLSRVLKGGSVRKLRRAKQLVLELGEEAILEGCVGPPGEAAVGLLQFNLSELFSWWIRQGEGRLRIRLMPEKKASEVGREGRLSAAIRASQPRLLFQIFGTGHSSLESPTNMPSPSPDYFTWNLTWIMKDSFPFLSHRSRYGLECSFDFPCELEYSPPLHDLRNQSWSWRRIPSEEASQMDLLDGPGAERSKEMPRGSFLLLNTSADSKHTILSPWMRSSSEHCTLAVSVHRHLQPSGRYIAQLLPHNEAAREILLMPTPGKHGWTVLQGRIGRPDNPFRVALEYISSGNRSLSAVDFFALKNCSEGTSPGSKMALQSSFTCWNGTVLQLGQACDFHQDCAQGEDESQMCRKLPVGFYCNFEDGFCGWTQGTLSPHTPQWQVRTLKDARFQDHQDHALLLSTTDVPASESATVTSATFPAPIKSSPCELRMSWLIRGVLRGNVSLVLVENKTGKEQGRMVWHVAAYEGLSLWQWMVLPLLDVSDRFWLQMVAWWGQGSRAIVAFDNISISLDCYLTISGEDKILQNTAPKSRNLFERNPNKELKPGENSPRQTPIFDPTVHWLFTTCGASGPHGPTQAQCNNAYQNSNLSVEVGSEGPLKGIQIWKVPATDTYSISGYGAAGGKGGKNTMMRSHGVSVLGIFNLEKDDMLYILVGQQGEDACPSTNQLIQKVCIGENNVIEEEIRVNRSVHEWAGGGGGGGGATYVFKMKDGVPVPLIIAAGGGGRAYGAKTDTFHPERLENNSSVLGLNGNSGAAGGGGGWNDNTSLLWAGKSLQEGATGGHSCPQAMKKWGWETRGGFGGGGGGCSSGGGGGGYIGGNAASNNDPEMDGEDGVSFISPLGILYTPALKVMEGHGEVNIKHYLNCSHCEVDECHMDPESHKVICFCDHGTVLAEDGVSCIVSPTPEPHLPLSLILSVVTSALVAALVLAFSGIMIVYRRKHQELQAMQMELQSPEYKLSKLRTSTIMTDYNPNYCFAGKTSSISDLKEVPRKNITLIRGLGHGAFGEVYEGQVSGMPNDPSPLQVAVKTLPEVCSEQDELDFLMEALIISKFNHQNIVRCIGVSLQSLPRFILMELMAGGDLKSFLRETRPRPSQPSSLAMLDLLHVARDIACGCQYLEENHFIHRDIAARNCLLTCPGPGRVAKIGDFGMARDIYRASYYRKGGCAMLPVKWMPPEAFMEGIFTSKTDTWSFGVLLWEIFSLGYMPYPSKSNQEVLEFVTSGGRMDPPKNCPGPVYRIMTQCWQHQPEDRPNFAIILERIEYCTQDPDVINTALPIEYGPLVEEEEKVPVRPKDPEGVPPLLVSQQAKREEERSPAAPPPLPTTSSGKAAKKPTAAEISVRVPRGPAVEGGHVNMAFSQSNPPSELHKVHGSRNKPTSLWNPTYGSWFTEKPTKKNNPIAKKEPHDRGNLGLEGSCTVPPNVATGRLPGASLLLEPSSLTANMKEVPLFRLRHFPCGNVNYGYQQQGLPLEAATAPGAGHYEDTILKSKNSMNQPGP
# Sequence of Tyrosine-protein kinase ITK/TSK (Homo sapiens) (Q08881 whole entry): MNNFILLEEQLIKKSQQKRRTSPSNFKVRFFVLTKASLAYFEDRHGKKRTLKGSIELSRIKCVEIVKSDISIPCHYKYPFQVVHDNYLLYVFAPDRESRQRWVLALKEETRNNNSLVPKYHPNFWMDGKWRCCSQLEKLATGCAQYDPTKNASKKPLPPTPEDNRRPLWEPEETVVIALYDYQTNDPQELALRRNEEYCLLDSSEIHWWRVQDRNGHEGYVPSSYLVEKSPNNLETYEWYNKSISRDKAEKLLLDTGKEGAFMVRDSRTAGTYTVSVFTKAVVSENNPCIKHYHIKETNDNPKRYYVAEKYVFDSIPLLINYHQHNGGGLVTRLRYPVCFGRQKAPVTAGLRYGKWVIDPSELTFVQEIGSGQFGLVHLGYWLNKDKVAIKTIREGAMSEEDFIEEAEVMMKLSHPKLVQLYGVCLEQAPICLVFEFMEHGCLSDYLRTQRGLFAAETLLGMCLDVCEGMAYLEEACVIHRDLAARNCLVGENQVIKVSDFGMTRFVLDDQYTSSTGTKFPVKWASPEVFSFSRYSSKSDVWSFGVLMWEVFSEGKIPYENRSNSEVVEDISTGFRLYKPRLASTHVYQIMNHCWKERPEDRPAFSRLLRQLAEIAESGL
# Sequence of Epidermal growth factor receptor (Homo sapiens), P00533 [UNDEFINED MUTATION] (P00533 whole entry, looked up, stated change not applied): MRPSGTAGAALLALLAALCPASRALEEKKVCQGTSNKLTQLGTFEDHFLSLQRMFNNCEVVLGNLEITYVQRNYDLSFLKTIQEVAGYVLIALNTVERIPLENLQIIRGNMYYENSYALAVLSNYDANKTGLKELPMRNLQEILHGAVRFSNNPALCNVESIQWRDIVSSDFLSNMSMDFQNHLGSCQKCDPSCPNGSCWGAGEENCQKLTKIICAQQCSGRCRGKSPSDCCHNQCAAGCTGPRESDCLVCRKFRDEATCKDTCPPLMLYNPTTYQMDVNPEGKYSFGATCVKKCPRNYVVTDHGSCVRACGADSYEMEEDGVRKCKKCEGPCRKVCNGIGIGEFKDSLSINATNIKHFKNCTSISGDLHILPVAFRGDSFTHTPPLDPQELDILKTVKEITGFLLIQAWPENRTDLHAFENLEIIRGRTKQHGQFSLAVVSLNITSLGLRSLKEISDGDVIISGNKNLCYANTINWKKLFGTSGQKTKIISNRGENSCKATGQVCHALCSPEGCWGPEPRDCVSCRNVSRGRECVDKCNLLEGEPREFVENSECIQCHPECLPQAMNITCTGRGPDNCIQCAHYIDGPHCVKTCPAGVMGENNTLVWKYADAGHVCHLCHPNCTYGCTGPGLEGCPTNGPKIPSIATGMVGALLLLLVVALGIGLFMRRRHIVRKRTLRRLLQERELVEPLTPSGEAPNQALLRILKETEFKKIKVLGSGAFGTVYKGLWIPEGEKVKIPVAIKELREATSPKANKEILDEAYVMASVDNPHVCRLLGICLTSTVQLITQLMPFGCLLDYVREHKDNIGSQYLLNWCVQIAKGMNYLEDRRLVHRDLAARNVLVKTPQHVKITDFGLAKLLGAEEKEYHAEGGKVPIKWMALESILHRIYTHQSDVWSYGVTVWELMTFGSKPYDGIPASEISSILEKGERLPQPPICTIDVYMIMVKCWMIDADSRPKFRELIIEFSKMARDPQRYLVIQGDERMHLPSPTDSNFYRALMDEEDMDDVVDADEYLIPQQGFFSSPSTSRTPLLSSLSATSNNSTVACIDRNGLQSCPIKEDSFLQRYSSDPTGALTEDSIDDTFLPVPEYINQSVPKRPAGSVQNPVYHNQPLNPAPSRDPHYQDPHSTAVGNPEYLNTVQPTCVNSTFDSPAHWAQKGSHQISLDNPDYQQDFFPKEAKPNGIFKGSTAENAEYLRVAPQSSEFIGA
# Sequence of Insulin-like growth factor 1 receptor (Homo sapiens) (P08069 31-736 limits assumed): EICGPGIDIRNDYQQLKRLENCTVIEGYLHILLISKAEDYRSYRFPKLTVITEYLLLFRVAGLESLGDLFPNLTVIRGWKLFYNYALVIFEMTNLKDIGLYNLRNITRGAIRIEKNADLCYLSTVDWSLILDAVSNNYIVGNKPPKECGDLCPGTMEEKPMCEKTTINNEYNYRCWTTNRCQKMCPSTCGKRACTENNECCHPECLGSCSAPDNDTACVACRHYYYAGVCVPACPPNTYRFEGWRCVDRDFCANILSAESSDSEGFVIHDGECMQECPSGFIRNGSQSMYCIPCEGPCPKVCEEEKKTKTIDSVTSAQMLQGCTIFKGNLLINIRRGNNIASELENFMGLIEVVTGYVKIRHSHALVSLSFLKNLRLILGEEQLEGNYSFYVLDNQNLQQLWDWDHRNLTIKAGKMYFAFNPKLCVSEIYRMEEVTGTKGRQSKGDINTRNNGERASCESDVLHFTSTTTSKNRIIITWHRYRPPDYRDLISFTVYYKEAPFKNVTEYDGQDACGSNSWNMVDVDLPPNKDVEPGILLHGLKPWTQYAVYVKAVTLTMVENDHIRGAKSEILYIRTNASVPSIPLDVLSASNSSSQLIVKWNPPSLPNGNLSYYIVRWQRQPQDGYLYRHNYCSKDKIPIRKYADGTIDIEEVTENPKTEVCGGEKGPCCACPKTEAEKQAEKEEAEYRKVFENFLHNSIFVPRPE
# Sequence of Insulin-like growth factor 1 receptor (Homo sapiens) (P08069 741-1367 limits assumed): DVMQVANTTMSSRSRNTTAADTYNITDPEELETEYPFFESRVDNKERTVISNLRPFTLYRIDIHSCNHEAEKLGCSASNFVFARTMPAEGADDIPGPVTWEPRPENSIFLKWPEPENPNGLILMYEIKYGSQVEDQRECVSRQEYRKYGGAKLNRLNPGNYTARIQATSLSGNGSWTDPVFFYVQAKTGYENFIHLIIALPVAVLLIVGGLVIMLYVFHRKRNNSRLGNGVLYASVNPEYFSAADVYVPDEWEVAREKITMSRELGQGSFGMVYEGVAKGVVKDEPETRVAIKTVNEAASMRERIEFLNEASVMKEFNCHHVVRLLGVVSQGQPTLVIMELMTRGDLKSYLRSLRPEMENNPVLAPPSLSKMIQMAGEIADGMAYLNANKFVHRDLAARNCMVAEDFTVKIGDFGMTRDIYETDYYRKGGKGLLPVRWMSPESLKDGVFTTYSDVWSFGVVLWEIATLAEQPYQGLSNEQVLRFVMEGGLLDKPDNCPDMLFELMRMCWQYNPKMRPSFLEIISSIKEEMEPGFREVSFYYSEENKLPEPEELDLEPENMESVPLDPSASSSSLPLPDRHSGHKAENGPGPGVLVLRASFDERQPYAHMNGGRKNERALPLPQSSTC
# Sequence of Serine/threonine-protein kinase pim-2 (Homo sapiens) (Q9P1W9 whole entry, looked up): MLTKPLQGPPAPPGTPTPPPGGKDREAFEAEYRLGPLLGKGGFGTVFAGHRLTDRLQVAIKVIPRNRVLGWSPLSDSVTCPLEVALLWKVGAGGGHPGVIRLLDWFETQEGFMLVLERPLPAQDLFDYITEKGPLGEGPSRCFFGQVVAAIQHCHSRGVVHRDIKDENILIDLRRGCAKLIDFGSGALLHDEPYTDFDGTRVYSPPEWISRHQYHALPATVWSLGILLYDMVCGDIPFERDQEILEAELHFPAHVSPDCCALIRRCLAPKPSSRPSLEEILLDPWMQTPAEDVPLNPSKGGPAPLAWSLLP
smiles,measurement,setting,value
CN(C)C(=O)c1ccc(N2CCCN(c3ccnc4sc(C(N)=O)c(N)c34)CC2)cc1,Activity,[1],100%
same,Activity,[2],Active
same,Activity,[3],92% and 88%
same,Activity,[4],100%
same,Activity,[5],100%
same,Activity,[6],100% and 80%
same,Activity,[7],92% and 91%
same,Activity,[8],100%
same,Activity,[9],98% and 99%
same,Activity,[10],100% and 92%
same,Activity,[11],85% and 89%
same,Activity,[12],95% and 100%
same,Activity,[13],33% and 14%
same,Activity,[14],Active
same,Activity,[15],69% and 74%
same,Activity,[16],90% and 77%
same,Activity,[17],64%
same,Activity,[17]; INHIBITOR,25%
same,Activity,[18],96% and 79%
same,Activity,[19],91% and 100%
same,Activity,[20],96% and 94%
same,Activity,[21],79% and 100%
same,Activity,[22],100% and 96%
same,Activity,[23],88% and 87%
same,Activity,[24],93% and 100%
same,Activity,[25],96% and 92%
same,Activity,[26],41% and 34%
same,Activity,[27],75% and 85%
same,Activity,[28],94% and 79%
same,Activity,[29],100% and 96%
same,Activity,[30],79% and 80%

# — ChEMBL document CHEMBL4804286, “3-amino-4-(4-(4 (dimethylcarbamoyl) phenyl)-1,4-diazepan-1-yl) thieno [2,3-b] pyridine-2-carboxamide for use in cancer therapy and formulations comprising the same” (2020)
